Experimental data: US10040783B2 (Emory University, priority 2011, dated 2018)
Entries after “also recorded” stand apart in the source; their conditions may differ. Read-outs that look alike come from different tables or passages of the source.

Tests used:
EP2 receptor [1] = target: T1, EP2 receptor (Homo sapiens, UniProt P43116); assay: Schild regression of PGE2-induced EP2 activation in C6G-EP2 cells; type: cell-based; set-up: expressed in transfected cells; host or cells: C6G-EP2 cells; conditions: for Schild plot slope: PGE2; for Modality of antagonism on EP2 receptor: Schild plots
Description: (§1) Information on the modality of antagonism can be obtained by performing Schild regression analysis characterized by: log (dr−1)=log XB−log KB. In the equation, dose ratio (dr)=fold shift in EC50, XB=[antagonist], KB=equilibrium dissociation constant for the antagonist-receptor complex. […] Thus, a lower KB value indicates a higher inhibitory potency.
To perform the Schild regression, C6G-EP2 cells were incubated first with vehicle, 0.01, 0.1 or 1 μM of test compound for 5 minutes, then with increasing concentrations of PGE2 to activate the EP2 receptor.

PC3 cells [2] = assay: MTT cell proliferation assay, butaprost-promoted growth; type: cell-based
Excerpt: (§2) PGE2/EP2 signaling has been recognized to play important roles in mediating tumor progression and tumor-associated angiogenesis.

[3] = tested on: iNOS, COX-2, IL-1β and IL-6 expression; assay: qRT-PCR of inflammatory mediators in microglia-enriched cultures; type: cell-based, rat
Excerpt: Nitric oxide (NO) synthesized by iNOS and prostaglandins produced by COX-2 are effectors of neurotoxicity and neuroinflammation, thus, these two inducible enzymes have been recognized as inflammatory mediators produced in activated microglia. As the dominant enzymatic product of COX-2, PGE2 therefore might play a role in microglia-mediated neuroinflammation and neurodegeneration.

in vitro = conditions: rat; for CC50 at 48 h: C6G cells
EP2 receptor [4] = target: T1, EP2 receptor; assay: Butaprost-induced cAMP accumulation in PC3 cells; type: cell-based; set-up: PC3 cells express a substantially higher level of EP2 than DU145 and LNCap cells; endogenous in cells; host or cells: PC3 cells; conditions: concentration-dependent
Excerpt: as §2

[5] = tested on: rat primary hippocampal cultures; assay: NMDA-induced LDH release (excitotoxicity) in primary hippocampal cultures; type: cell-based
Excerpt: Excitotoxicity caused by NMDA receptor activation is recognized to induce neuronal apoptosis both in vitro and in vivo in cortical neurons. NMDA receptor activation can, via COX-2, cause prostaglandin production, including PGE2. Activation of the EP2 receptor by PGE2 in microglia can promote neuroinflammation in several models of neurodegenerative diseases. The effect of EP2 antagonist compounds were examined on NMDA-induced excitotoxicity. Rat primary hippocampal cultures (DIV13-15) were preincubated with vehicle or increasing concentrations of test compound for 15-20 min, followed by treatment with NMDA (30 μM) plus glycine (10 μM) overnight in continued presence of the test compound. Lactate dehydrogenase (LDH) release was used as the measure of neuronal injury.

PC3 cells [6] = assay: Cell invasion across Matrigel-coated filter; type: cell-based; conditions: for Effect on PC3 cell invasion (cells moved across Matrigel-coated filter): butaprost 1 μM
Excerpt: as §2

C6G cells = assay: CellTiter-Glo luminescent cell viability assay (cytotoxicity)
EP4 receptor = EP4 receptor (Homo sapiens, UniProt P35408); assay: Schild regression analysis for EP4 receptor; type: cell-based; conditions: for Kb: read-out: KB (μM) EP4, from Schild regression analysis
Excerpt: as §1

human DP1 receptors = target: T2, human DP1 receptors (Homo sapiens, UniProt Q13258); assay: DP1 assay: BW245C-induced cAMP, TR-FRET, in C6G cells expressing DP1; type: cell-based; conditions: agonist BW245C
T2 construct: expressed in transfected cells
T2 sequence (Q13258 1-359): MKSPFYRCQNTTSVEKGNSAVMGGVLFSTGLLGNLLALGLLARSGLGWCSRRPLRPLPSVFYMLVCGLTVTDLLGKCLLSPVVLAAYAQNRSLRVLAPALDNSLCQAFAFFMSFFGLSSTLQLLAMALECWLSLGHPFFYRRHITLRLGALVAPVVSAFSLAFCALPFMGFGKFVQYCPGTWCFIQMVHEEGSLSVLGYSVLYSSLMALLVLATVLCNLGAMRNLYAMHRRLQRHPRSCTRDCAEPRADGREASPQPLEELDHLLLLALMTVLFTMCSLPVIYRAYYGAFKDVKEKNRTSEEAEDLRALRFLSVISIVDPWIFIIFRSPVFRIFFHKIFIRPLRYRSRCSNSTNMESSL
Description: DP1 Assay Both DP1 and EP2 receptors are positively coupled through Gαs to cAMP production and conduct very similar physiological and pathological events. Among the eight canonical prostanoid receptors, DP1 has similarities to EP2 at both protein and DNA level. C6G cells that stably expressing human DP1 receptors were seeded into 384-well plates in 30 μL complete medium (4,000 cells per well) and grown overnight. The medium was thoroughly withdrawn and 10 μL HBSS (HyClone) plus 20 μM rolipram were added into the wells to block phosphodiesterase. […] The cells were lysed in 10 μL lysis buffer containing the FRET acceptor cAMP-d2 and 1 min later another 10 μL lysis buffer with anti-cAMP-Cryptate was added. […] The FRET signal is expressed as F665/[…].

[7] = tested on: rat microglia-enriched cultures; assay: LDH release in microglia-enriched cultures; type: cell-based; conditions: 10 μM, overnight, basal
Description: Microglia are the initial and major mediators of neuroinflammation and neurodegeneration in various models of neurological disorders. EP2 receptor has been reported to regulate microglial activation and subsequent neurotoxicity in several animal models. The effects of EP2 activation in microglia were investigated. Rat microglia-enriched cultures were incubated with vehicle, butaprost, or compound A1 overnight. The cellular viability was evaluated by measuring Lactate dehydrogenase (LDH) release.

[8] = Rattus norvegicus, 10 μM compound, NMDA 30 μM plus glycine 10 μM overnight, read-out: NMDA-induced LDH release, % of control
[9] = additional compounds tables, read-out: EP2 KB
[10] = C6G-EP2 cells, PGE2 as agonist, read-out: KB (nM) EP2, from Schild regression analysis

Chain of EP4 receptor (P35408 whole entry): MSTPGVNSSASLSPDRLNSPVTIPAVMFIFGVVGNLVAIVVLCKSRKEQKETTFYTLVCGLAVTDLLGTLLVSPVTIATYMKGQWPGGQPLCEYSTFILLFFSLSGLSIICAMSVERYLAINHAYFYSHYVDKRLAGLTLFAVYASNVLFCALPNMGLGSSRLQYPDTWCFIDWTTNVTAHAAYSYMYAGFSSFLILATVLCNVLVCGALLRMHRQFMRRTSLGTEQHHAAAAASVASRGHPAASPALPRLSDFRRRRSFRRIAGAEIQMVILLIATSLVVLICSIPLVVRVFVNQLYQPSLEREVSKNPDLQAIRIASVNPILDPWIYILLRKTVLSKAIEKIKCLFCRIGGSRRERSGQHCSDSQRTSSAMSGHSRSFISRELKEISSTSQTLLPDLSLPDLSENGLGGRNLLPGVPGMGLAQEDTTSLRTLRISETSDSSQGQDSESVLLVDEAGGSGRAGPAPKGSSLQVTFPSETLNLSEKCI
T1 sequence (P43116 whole entry): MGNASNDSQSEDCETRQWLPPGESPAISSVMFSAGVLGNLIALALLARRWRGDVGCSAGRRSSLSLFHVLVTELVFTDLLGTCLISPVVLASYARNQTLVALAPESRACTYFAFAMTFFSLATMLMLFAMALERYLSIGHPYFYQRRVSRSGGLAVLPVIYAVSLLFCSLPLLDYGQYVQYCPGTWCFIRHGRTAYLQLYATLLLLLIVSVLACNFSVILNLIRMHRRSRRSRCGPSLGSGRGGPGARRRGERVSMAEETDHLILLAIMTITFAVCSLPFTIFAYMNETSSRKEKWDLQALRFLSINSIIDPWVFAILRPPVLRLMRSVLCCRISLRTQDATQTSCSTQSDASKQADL

| SMILES | Kb (EP4 receptor) [µM] | Kb (human DP1 receptors) [µM] | Kb (EP2 receptor [1]; [10]) [nM] | Therapeutic index (in vitro), CC50/KB for EP2 (C6G cells) | CC50 at 48 h (in vitro) [µM] | Selective index, KB EP4/KB EP2 (EP4 receptor) | also measured |
| --- | --- | --- | --- | --- | --- | --- | --- |
| COc1cc(C=CC(=O)NCCn2c(C)cc3ccccc32)cc(OC)c1OC [A1, N-(2-(2-methyl-1H-indol-1-yl)ethyl)-3-(3,4,5-trimethoxyphenyl)acrylamide] | – | – | – | – | – | – | Schild plot slope (EP2 receptor [1]; C6G-EP2 cells): 1.0; Modality of antagonism on EP2 receptor (EP2 receptor [1]): competitive antagonism; Effect on butaprost-induced PC3 cell growth (PC3 cells [2]; concentration-dependent): attenuated; Effect on butaprost-induced upregulation of inflammatory mediators ([3]; 0.1-10 μM, concentration-dependent): inhibited; also recorded: attenuated; CC50 (in vitro): 172 µM; Inhibition of butaprost-induced EP2 receptor activation (EP2 receptor [4]): robust competitive inhibition; activity at 0.01 µM ([5]; Rattus norvegicus, 0.01 μM compound, NMDA 30 μM plus glycine 10 μM overnight, read-out: NMDA-induced LDH release, % of control): 94%; activity at 0.1 µM ([5]; Rattus norvegicus, 0.1 μM compound, NMDA 30 μM plus glycine 10 μM overnight, read-out: NMDA-induced LDH release, % of control): 87.8%; activity at 1 µM ([5]; Rattus norvegicus, 1 μM compound, NMDA 30 μM plus glycine 10 μM overnight, read-out: NMDA-induced LDH release, % of control): 73.9%; activity at 10 µM [5, 8]: 50.8%; EC50 ([5]; rat hippocampal cultures, read-out: EC50 for the reduction of NMDA-induced LDH release): 0.8 µM; Effect on PC3 cell invasion promoted by EP2 activation (PC3 cells [6]; cotreatment 1 μM with butaprost 1 μM): inhibited; also recorded: blocked |
| COc1cc(/C=C/C(=O)NCCN2CCCCC2C)cc(OC)c1OC (centres unmarked) [1e] | 18.9 | – | – | – | – | – | KB (nM) EP2, from Schild regression analysis (EP2 receptor [1]; C6G-EP2 cells, PGE2 as agonist): Inactive; CC50 (C6G cells; read-out: CC50, half maximal cytotoxic concentration, C6G cells after 48 h incubation): 316 µM; NMDA-induced LDH release, % of control ([5]; 10 μM compound, NMDA 30 μM plus glycine 10 μM overnight): did not show any effect and not |
| COc1cc(/C=C/C(=O)NCCc2c(C)[nH]c3ccccc23)cc(OC)c1OC [TG7-74] | – | 0.112 | – | – | – | – | Kb (EP2 receptor [1]; [9]): 2.9 nM |
| COc1ccc(/C=C/C(=O)NCCn2c(C)cc3ccccc32)cc1Cl [1w] | 4.7 | – | 1.9 | 253,000 | 481 | 2,470 | activity at 10 µM [5, 8]: 78.4% |
| COc1ccc(C(=O)NCCn2c(C)cc3ccccc32)cc1OC [TG7-112-2, 3,4-dimethoxy-N-(2-(2-methyl-1H-indol-1-yl)ethyl)benzamide] | – | 1.43 | – | – | – | – | – |
| COc1cc(C=CC(=O)NCCn2c(C)cc3cc(F)ccc32)cc(OC)c1OC [1f, N-(2-(5-fluoro-2-methyl-1H-indol-1-yl)ethyl)-3-(3,4,5-trimethoxyphenyl)acrylamide] | 5.4 | – | 2.1 | 73,800 | 155 | 2,600 | activity at 10 µM [5, 8]: 38.5% |
| COc1ccc(/C=C/C(=O)NCCc2c(C)[nH]c3ccccc23)cc1OC [TG7-76] | – | 0.227 | – | – | – | – | Kb (EP2 receptor [1]; [9]): 6 nM |
| COc1cc(OC)c(C=CC(=O)NCCn2c(C)cc3ccccc32)cc1Br [1y, 3-(5-bromo-2,4-dimethoxyphenyl)-N-(2-(2-methyl-1H-indol-1-yl)ethyl)acrylamide] | 6.9 | – | 8 | 155,000 | 1240 | 859 | – |
| Cc1cc(/C=C/C(=O)NCCn2c(C)cc3ccccc32)cc(C)c1F [TG7-98, 3-(4-fluoro-3,5-dimethylphenyl)-N-(2-(2-methyl-1H-indol-1-yl)ethyl)acrylamide] | – | 0.745 | – | – | – | – | Kb (EP2 receptor [1]; [9]): 4.4 nM |
| Cc1cc2ccccc2n1CCNC(=O)C=Cc1ccc2c(c1)OCO2 [1o, 3-(benzo[d][1,3]dioxol-5-yl)-N-(2-(2-methyl-1H-indol-1-yl)ethyl)acrylamide] | 11.4 | – | 18.1 | 8,070 | 146 | 629 | – |
| COc1ccc(C=CC(=O)NCCn2c(C)cc3ccccc32)cc1OC [A2, 3-(3,4-dimethoxyphenyl)-N-(2-(2-methyl-1H-indol-1-yl)ethyl)acrylamide] | 2 | – | 4.6 | 86,300 | 397 | 435 | Schild plot slope (EP2 receptor [1]; C6G-EP2 cells): 1.1; Modality of antagonism on EP2 receptor (EP2 receptor [1]): competitive antagonism; activity at 10 µM [5, 8]: 77.8% |
| COc1ccc(C=CC(=O)NCCn2c(C)cc3ccccc32)cc1 [1m, 3-(4-methoxyphenyl)-N-(2-(2-methyl-1H-indol-1-yl)ethyl)acrylamide] | 8 | – | 16.5 | 187,000 | 3090 | 484 | – |
| CC(=O)Nc1ccc(C(=O)NCCn2c(C)cc3ccccc32)cc1 [TG7-117, 4-acetamido-N-(2-(2-methyl-1H-indol-1-yl)ethyl)benzamide] | – | 5.83 | – | – | – | – | Kb (EP2 receptor [1]; [9]): 83 nM |
| CCCC1([C@H](O)C/C=C/[C@H]2[C@H](O)CC(=O)[C@@H]2CCCCCCC(=O)OC)CCC1 [butaprost] | – | – | – | – | – | – | Concentration giving maximal response of PC3 cell growth (PC3 cells [2]): 1 µM; Effect of EP2 activation on PC3 cell growth (PC3 cells [2]): promoted PC3 cell growth; COX-2 expression increase ([3]; butaprost 1 μM, qRT-PCR): 16.3 fold; IL-1β expression increase ([3]; butaprost 1 μM, qRT-PCR): 1.8 fold; IL-6 expression increase ([3]; butaprost 1 μM, qRT-PCR): 11.1 fold; iNOS expression increase ([3]; butaprost 1 μM, qRT-PCR): 3.4 fold; LDH release compared to control [7]: 138%; Effect on PC3 cell invasion (cells moved across Matrigel-coated filter) (PC3 cells [6]): promoted cell invasion; Effect on PC3 cell invasion (cells moved across Matrigel-coated filter) (PC3 cells [6]; listed as Butaprost): significantly increased |
| COc1ccc(/C=C/C(=O)NCCn2c(C)cc3cc(F)ccc32)cc1Cl [1x] | 3.3 | – | 6.3 | 95,400 | 601 | 525 | – |
